≈ marks a conversion by molar mass, not a printed value. Counter-ions that a name gives are not always drawn. Like-named read-outs stand apart in the source and are kept apart here.
How the values were obtained:
[1] = system: primary human erythroid cells; assay: AlamarBlue cell viability / proliferation assay; details: for IC50: 3 days
[2] = system: γ globin gene; assay: γ globin gene induction by relative quantitative RT-PCR; type: cell-based, human; details: for γ globin induction (IC50): Table 3, γ globin mRNA induction fold at the compound's IC50, 3 days; for EC (μM) induction of HU IC50 (2.3 fold): concentration inducing γ globin gene expression 2.3-fold, primary human erythroid cells
Protocol: After 3 days of drug-treatment, the total RNA was extracted by RNA Spin mini kit (Ge-Healthcare) and reverse-transcription was performed by using superscript II (Invitrogen) followed the manufactors instruction. Quantitative PCR was performed on LightCycler with using STBR green master mix followed the manufactors instruction (Roche). The absolute quantitative RT-PCR was calculated by the standard curve with supplying a known copy number of plasmids. The relative quantitative RT-PCR was normalized to the expression levels of the β-actin and compared to the mock control.
To search for new agents, which are capable of inducing the expression of γ globin, a series of naphthalimide derivatives with various substituent(s) on the naphthalene ring and the heterocyclic N-atom (A1-A14, B1-B4, C1-C5, D1, and E1-E3, FIG. 2) were synthesized. These derivatives were subjected to evaluating the γ globin induction abilities in differentiated peripheral blood mononuclear cells (PBMCs). The PBMCs isolated from the peripheral blood of donors were expanded and differentiated for a total of 14 days in a two-phase liquid culture. The resulted primary erythoid cells were then treated with different dosages of naphthalimide derivatives individually for another 3 days. The expression levels of the endogenous γ globin gene were estimated by relative quantitative RT-PCR and the proliferation rates of these cells were examined by AlamarBlue cell viability assay. […]; 2-4.5-folds induction of the γ globin gene expression in the compounds-treated cells (FIG. 3).

[3] = solubility in DMSO and H2O; type: physicochemical; details: for water-solubility (in words): comparison
[4] = DMSO, organic solvent or mixture, read-out: solubility DMSO
[5] = Table 1a, concentration reducing proliferation rate of primary human erythroid cells by 50%
[6] = water, H2O, read-out: solubility H2O
[7] = Table 3, primary human erythroid cells, proliferation reduced by 50%

| melting point | Compound | IC50 [1, 5] | further results |
| --- | --- | --- | --- |
| > 280 °C | CN(C)CCN1C(=O)c2cccc3c(Cl)ccc(c23)C1=O (as salt: hydrochloride) [Compound B4, N-(2-dimethylamino-ethyl)-4-chloro-1,8-naphthalimide hydrochloride] | – | – |
| > 280 °C | CN(C)CCCN1C(=O)c2cccc3c(N)ccc(c23)C1=O (as salt: hydrochloride) [Compound E3, N-(3-dimethylamino-propyl)-4-amino-1,8-naphthalimide hydrochloride] | – | – |
| 129 to 130 °C | CN(C)CCN1C(=O)c2cccc3cccc(c23)C1O (centres unmarked) [BO-2476, 2-(2-(Dimethylamino)ethyl)-3-hydroxy-2,3-dihydro-1H-benzo[de]isoquinolin-1-one] | – | – |
| 253 to 254 °C | CN(C)CCN1Cc2cccc3cccc(c23)C1=O [BO-2477, 2-(2-(Dimethylamino)ethyl)-2,3-dihydro-1H-benzo[de]isoquinolin-1-one] | – | cytotoxicity IC50 against primary erythroid cells ([1]; FIG. 8, Example 2): relatively lower cytotoxicity; γ globin-inducing activity, rank among compounds tested ([2]; FIG. 8): highest γ globin-inducing activity |
| 278 to 279 °C | CC(=O)Nc1ccc2c3c(cccc13)C(=O)N(CCN(C)C)C2=O [BO-2559, N-(2-(2-(Dimethylamino)ethyl)-1,3-dioxo-2,3-dihydro-1H-benzo[de]isoquinolin-6-yl)acetamide] | – | – |
| 253 to 254 °C | CN(C)CCN1Cc2cccc3c(N)ccc(c23)C1 [BO-2560, 2-(2-(Dimethylamino)ethyl)-2,3-dihydro-1H-benzo[de]isoquinolin-6-amine] | – | – |
| 251 to 252 °C | CN(C)CCN1Cc2cccc3c(N(C)C)ccc(c23)C1 [BO-2563, 2-(2-(Dimethylamino)ethyl)-N,N-dimethyl-2,3-dihydro-1H-benzo[de]isoquinolin-6-amine] | – | – |
| 253 to 254 °C | CCNc1ccc2c3c(cccc13)C(=O)N(CCN(C)C)C2=O [BO-2564, 2-(2-(Dimethylamino)ethyl)-6-(ethylamino)-1H-benzo[de]isoquinoline-1,3(2H)-dione] | – | – |
| 239 to 240 °C | CCNc1ccc2c3c(cccc13)CN(CCN(C)C)C2 [BO-2565, 2-(2-(dimethylamino)ethyl)-N-ethyl-2,3-dihydro-1H-benzo[de]isoquinolin-6-amine] | – | – |
| 218 to 220 °C | O=C1c2cccc3cccc(c23)C(=O)N1c1ccccc1 [Compound A1, N-Phenyl-1,8-naphthalimide] | > 100 µM | solubility [3, 4]: 10 mM (≈ 2730 µg/mL) |
| > 280 °C | O=C1c2cccc3c([N+](=O)[O-])ccc(c23)C(=O)N1c1ccccc1 [Compound A2, N-Phenyl-4-nitro-1,8-naphthalimide] | 0.3 µM | γ globin induction (IC50) [2]: 1.1 fold |
| > 280 °C | O=C1c2cccc3c([N+](=O)[O-])ccc(c23)C(=O)N1c1ccc(Cl)c(Cl)c1 [Compound A3, N-(3,4-Dichloro-phenyl)-4-nitro-1,8-naphthalimide] | 5.2 µM | – |
| > 280 °C | COc1cccc(N2C(=O)c3cccc4c([N+](=O)[O-])ccc(c34)C2=O)c1 [Compound A4, N-(3-Methoxy-phenyl)-4-nitro-1,8-naphthalimide] | 21 µM | – |
| 254.5 to 256 °C | O=C(O)CCCc1ccc(N2C(=O)c3cccc4c([N+](=O)[O-])ccc(c34)C2=O)cc1 [Compound A5, N-(4-Butyric acid-phenyl)-4-nitro-1,8-naphthalimide] | 6.7 µM | – |
| 263 to 265.5 °C | O=C1c2cccc3c(Cl)ccc(c23)C(=O)N1c1ccccc1 [Compound A6, N-Phenyl-4-chloro-1,8-naphthalimide] | > 100 µM | – |
| > 280 °C | COc1cccc(N2C(=O)c3cccc4c(Cl)ccc(c34)C2=O)c1 [Compound A7, N-(3-Methoxy-phenyl)-4-chloro-1,8-naphthalimide] | > 100 µM | – |
| 278 to 279 °C | O=C1c2cccc3c(Cl)ccc(c23)C(=O)N1c1cccc(C(F)(F)F)c1 [Compound A8, N-(3-Trifluoromethyl-phenyl)-4-chloro-1,8-naphthalimide] | > 100 µM | – |
| > 280 °C | O=C1c2cccc3c(Cl)ccc(c23)C(=O)N1c1cccc(Br)c1 [Compound A9, N-(3-Bromo-phenyl)-4-chloro-1,8-naphthalimide] | > 100 µM | – |

| melting point | Compound | IC50 [1, 5] | further results |
| --- | --- | --- | --- |
| 273 to 275 °C | O=C1c2cccc3c(Cl)ccc(c23)C(=O)N1c1cccc(Cl)c1 [Compound A10, N-(3-Chloro-phenyl)-4-chloro-1,8-naphthalimide] | > 100 µM | – |
| > 280 °C | O=C1c2cccc3c(Cl)ccc(c23)C(=O)N1c1ccc(F)c(Br)c1 [Compound A11, N-(3-Bromo-4-fluoro-phenyl)-4-chloro-1,8-naphthalimide] | > 100 µM | – |
| 274 to 276 °C | O=C1c2cccc3c(Cl)ccc(c23)C(=O)N1c1ccc(F)cc1 [Compound A12, N-(4-Fluoro-phenyl)-4-chloro-1,8-naphthalimide] | > 100 µM | – |
| > 280 °C | O=C1c2cccc3c(Cl)ccc(c23)C(=O)N1c1ccc(Br)cc1 [Compound A13, N-(4-Bromo-phenyl)-4-chloro-1,8-naphthalimide] | > 100 µM | – |
| > 280 °C | O=C1c2cccc3c(Cl)ccc(c23)C(=O)N1c1ccc(Cl)c(Cl)c1 [Compound A14, N-(3,4-Dichloro-phenyl)-4-chloro-1,8-naphthalimide] | > 100 µM | – |
| – | CN(C)CCN1C(=O)c2cccc3cccc(c23)C1=O [Compound B1, N-(2-Dimethylamino-ethyl)-1,8-naphthalimide hydrochloride] | 10.7 µM | water-solubility (in words) [3]: greatly improved water-solubility; solubility [3, 6]: > 100 mM; IC50 [1, 7]: 10.7 µM; γ globin induction (IC50) [2]: 4.1 fold; EC (μM) induction of HU IC50 (2.3 fold) [2]: 4.7 µM |
| 131 to 133 °C | CN(C)CCN1C(=O)c2cccc3c([N+](=O)[O-])ccc(c23)C1=O [Compound B2, N-(2-Dimethylamino-ethyl)-4-nitro-1,8-naphthalimide] | 2.6 µM | – |
| – | CN(C)CCCN1C(=O)c2cccc3c([N+](=O)[O-])ccc(c23)C1=O [Compound B3, N-(3-Dimethylamino-propyl)-4-nitro-1,8-naphthalimide] | 2.3 µM | – |
| – | CN(C)CCN1C(=O)c2cccc3c(Cl)ccc(c23)C1=O [Compound B4, N-(2-dimethylamino-ethyl)-4-chloro-1,8-naphthalimide hydrochloride] | 5 µM | water-solubility (in words) [3]: greatly improved water-solubility; solubility [3, 6]: > 100 mM; IC50 [1, 7]: 5 µM; γ globin induction (IC50) [2]: 3.3 fold; EC (μM) induction of HU IC50 (2.3 fold) [2]: 2.2 µM |
| – | CCN1C(=O)c2cccc3cccc(c23)C1=O [Compound C1, N-Ethyl-1,8-naphthalimide] | > 100 µM | – |
| 209 to 212.5 °C | CN1C(=O)c2cccc3c([N+](=O)[O-])ccc(c23)C1=O [Compound C2, N-Methyl-4-nitro-1,8-naphthalimide] | > 100 µM | – |
| 191 to 192.5 °C | CCN1C(=O)c2cccc3c([N+](=O)[O-])ccc(c23)C1=O [Compound C3, N-Ethyl-4-nitro-1,8-naphthalimide] | > 100 µM | – |
| – | CN1C(=O)c2cccc3c(Cl)ccc(c23)C1=O [Compound C4, N-Methyl-4-chloro-1,8-naphthalimide] | > 100 µM | – |
| 167 to 170 °C | CCN1C(=O)c2cccc3c(Cl)ccc(c23)C1=O [Compound C5, N-Ethyl-4-chloro-1,8-naphthalimide] | > 100 µM | – |
| 115 to 116 °C | CCOC(=O)CCCN1C(=O)c2cccc3c([N+](=O)[O-])ccc(c23)C1=O [Compound D1, N-(Butyric acid ethyl ester)-4-nitro-1,8-naphthalimide] | 6.3 µM | – |
| – | Nc1ccc2c3c(cccc13)C(=O)N(c1ccccc1)C2=O [Compound E1, N-Phenyl-4-amino-1,8-naphthalimide] | 2.2 µM | solubility [3, 4]: 10 mM (≈ 2880 µg/mL); IC50 [1, 7]: 0.3 µM; EC (μM) induction of HU IC50 (2.3 fold) [2]: 2.9 µM |
| – | CN(C)CCCN1C(=O)c2cccc3c(N)ccc(c23)C1=O [Compound E3, N-(3-dimethylamino-propyl)-4-amino-1,8-naphthalimide hydrochloride] | 11.2 µM | water-solubility (in words) [3]: greatly improved water-solubility; solubility [3, 6]: > 100 mM; IC50 [1, 7]: 11.2 µM; γ globin induction (IC50) [2]: 2.7 fold; EC (μM) induction of HU IC50 (2.3 fold) [2]: 7.4 µM |
| – | C[S+]([O-])c1ccc(-c2nc(-c3ccncc3)c(-c3ccc(F)cc3)[nH]2)cc1 (centres unmarked) [SB203580, reference compound] | – | effect of pre-treatment on γ globin elevation triggered by S51021 and SS-2394 ([2]; data not shown): efficiently abolished |

— patent publication US20170290820A1, “METHODS AND COMPOSITIONS FOR TREATING BETA-THALASSEMIA AND SICKLE CELL DISEASE” (Academia Sinica, priority 2013, published 2017)
